Experimental data from ChEMBL document CHEMBL5715260, “Selectivity Literature for EUbOPEN Chemogenomic Library” (2024).

What was measured:
[1] = molecular target: T1, Nuclear receptor subfamily 2 group C member 1 (Homo sapiens) (UniProt P13056); assay: Selectivity interaction (Reporter gene assay) EUB0001158a NR2C1; set-up: recommended concentration 1 uM
T1 sequence (whole entry): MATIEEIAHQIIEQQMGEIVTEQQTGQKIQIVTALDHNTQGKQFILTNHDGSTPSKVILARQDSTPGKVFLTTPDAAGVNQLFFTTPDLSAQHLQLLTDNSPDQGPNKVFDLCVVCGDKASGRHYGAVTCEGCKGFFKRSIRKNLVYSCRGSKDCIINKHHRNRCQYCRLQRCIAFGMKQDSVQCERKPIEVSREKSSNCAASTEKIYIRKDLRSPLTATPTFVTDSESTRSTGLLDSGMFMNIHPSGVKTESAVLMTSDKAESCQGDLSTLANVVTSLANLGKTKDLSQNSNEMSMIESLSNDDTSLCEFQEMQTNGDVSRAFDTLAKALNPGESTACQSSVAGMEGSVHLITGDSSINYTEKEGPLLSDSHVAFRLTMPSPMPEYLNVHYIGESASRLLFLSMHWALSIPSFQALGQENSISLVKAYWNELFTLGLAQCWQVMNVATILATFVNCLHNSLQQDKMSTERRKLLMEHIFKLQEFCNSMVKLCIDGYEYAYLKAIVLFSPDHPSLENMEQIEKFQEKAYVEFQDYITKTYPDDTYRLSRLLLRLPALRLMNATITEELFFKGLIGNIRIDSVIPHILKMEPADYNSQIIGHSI

[2] = molecular target: T2, Hepatocyte nuclear factor 4-alpha (Homo sapiens) (UniProt P41235); assay: Selectivity interaction (Reporter gene assay) EUB0001158a HNF4A; set-up: recommended concentration 1 uM
T2 sequence (whole entry): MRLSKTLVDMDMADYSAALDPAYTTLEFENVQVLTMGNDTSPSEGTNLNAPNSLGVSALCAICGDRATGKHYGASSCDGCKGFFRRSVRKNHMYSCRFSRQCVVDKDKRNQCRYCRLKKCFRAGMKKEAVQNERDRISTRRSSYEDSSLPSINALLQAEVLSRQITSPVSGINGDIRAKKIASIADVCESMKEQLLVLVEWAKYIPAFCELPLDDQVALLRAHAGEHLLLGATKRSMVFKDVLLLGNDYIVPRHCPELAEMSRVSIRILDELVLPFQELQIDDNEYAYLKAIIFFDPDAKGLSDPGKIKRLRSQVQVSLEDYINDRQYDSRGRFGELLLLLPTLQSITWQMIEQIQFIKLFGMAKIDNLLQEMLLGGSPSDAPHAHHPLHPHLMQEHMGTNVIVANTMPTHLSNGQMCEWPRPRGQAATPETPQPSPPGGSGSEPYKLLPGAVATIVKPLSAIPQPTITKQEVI

[3] = molecular target: T3, Alpha trans-inducing protein (Human alphaherpesvirus 1) (UniProt A0A5J6DW59); assay: Selectivity interaction (Reporter gene assay) EUB0001158a UL48; set-up: recommended concentration 1 uM
T3 sequence (A0A5J6DW59 as listed by the source): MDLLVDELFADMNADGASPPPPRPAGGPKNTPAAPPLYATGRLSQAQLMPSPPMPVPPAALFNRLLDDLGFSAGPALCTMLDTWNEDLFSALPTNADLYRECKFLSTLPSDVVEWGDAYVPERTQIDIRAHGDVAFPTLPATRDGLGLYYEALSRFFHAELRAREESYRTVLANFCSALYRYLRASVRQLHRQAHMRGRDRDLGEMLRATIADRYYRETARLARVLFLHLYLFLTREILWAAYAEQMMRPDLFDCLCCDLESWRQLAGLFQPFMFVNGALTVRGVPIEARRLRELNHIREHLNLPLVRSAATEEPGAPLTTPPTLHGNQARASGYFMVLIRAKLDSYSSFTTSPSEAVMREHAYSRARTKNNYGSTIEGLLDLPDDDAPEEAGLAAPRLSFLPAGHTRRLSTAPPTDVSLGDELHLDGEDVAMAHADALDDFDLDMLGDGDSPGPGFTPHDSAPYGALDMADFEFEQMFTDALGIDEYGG

[4] = molecular target: Steroidogenic factor 1 (Homo sapiens) (UniProt Q13285); assay: Selectivity interaction (Reporter gene assay) EUB0001158a NR5A1; set-up: recommended concentration 1 uM
Sequence of Steroidogenic factor 1 (Homo sapiens) (Q13285 whole entry): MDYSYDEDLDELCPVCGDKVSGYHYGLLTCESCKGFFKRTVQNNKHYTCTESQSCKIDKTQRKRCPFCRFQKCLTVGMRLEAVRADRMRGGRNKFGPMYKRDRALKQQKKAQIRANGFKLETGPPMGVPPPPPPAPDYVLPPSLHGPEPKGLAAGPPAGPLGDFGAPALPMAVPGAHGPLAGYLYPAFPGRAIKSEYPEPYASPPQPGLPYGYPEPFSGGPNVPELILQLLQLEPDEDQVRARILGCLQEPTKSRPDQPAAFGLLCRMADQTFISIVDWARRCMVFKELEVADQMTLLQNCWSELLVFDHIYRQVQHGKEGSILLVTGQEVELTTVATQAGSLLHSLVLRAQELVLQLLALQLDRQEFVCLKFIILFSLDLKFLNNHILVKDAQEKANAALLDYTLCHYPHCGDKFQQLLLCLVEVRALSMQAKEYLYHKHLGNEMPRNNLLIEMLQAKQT

[5] = molecular target: Nuclear receptor subfamily 2 group E member 1 (Homo sapiens) (UniProt Q9Y466); assay: Selectivity interaction (Reporter gene assay) EUB0001158a NR2E1; set-up: recommended concentration 1 uM
Sequence of Nuclear receptor subfamily 2 group E member 1 (Homo sapiens) (Q9Y466 whole entry): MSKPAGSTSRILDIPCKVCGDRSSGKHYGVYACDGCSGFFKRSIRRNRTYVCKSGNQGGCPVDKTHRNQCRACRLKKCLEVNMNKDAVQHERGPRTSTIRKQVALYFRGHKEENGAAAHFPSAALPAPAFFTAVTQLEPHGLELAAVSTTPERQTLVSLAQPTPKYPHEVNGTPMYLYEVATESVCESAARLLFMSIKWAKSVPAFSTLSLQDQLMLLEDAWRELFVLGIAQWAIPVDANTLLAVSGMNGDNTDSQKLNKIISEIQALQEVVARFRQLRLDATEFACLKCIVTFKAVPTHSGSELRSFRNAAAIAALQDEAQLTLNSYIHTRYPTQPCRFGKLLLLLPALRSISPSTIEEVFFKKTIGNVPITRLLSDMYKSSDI

[6] = molecular target: Nuclear receptor subfamily 4immunitygroup A member 1 (Homo sapiens) (UniProt P22736); assay: Selectivity interaction (Reporter gene assay) EUB0001158a NR4A1; set-up: recommended concentration 1 uM
Sequence of Nuclear receptor subfamily 4immunitygroup A member 1 (Homo sapiens) (P22736 whole entry): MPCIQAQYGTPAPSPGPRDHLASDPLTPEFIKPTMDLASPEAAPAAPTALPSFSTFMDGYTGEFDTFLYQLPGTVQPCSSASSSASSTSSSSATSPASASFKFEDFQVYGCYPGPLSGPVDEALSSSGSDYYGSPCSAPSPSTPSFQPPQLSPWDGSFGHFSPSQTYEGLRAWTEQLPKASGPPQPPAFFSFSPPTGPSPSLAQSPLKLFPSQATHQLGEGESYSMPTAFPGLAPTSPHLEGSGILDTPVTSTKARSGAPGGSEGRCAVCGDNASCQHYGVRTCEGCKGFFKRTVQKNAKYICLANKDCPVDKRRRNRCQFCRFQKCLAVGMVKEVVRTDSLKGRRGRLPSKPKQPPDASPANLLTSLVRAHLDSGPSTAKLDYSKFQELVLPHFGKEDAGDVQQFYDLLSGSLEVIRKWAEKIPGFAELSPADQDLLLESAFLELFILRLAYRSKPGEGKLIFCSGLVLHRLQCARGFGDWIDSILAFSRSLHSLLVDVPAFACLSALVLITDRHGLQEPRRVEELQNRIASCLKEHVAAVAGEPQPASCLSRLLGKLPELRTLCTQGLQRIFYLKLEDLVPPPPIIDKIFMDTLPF

[7] = molecular target: T4, Retinoic acid receptor RXR-alpha (Homo sapiens) (UniProt P19793); assay: Selectivity interaction (Reporter gene assay) EUB0001158a RXRA; set-up: recommended concentration 1 uM; conditions: reference bexarotene 1 uM, Selectivity number of off-targets 0.0, Selectivity number of targets 1.0, Source Knowledge inhouse
T4 sequence (whole entry): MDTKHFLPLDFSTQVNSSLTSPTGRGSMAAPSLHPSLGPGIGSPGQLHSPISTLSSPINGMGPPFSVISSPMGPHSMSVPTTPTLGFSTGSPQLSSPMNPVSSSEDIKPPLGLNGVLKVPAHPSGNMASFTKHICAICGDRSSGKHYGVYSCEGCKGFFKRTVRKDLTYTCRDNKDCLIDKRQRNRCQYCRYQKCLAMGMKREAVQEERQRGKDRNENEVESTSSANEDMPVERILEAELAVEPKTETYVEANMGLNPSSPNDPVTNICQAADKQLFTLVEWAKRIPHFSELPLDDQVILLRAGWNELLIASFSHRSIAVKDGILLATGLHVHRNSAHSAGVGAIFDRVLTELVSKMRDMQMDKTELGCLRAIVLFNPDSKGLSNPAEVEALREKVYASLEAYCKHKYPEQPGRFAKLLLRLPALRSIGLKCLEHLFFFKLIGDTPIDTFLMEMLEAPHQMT

[8] = molecular target: Nuclear receptor subfamily 4immunitygroup A member 1 (Homo sapiens) (UniProt P22736); assay: Selectivity interaction (Reporter gene assay) EUB0001157a NR4A1; set-up: recommended concentration 10 uM
[9] = molecular target: Steroidogenic factor 1 (Homo sapiens) (UniProt Q13285); assay: Selectivity interaction (Reporter gene assay) EUB0001157a NR5A1; set-up: recommended concentration 10 uM
[10] = molecular target: T2, Hepatocyte nuclear factor 4-alpha (Homo sapiens); assay: Selectivity interaction (Reporter gene assay) EUB0001157a HNF4A; set-up: recommended concentration 10 uM
[11] = molecular target: T3, Alpha trans-inducing protein (Human alphaherpesvirus 1); assay: Selectivity interaction (Reporter gene assay) EUB0001157a UL48; set-up: recommended concentration 10 uM
[12] = molecular target: T1, Nuclear receptor subfamily 2 group C member 1 (Homo sapiens); assay: Selectivity interaction (Reporter gene assay) EUB0001157a NR2C1; set-up: recommended concentration 10 uM
[13] = molecular target: Nuclear receptor subfamily 2 group E member 1 (Homo sapiens) (UniProt Q9Y466); assay: Selectivity interaction (Reporter gene assay) EUB0001157a NR2E1; set-up: recommended concentration 10 uM
[14] = molecular target: T4, Retinoic acid receptor RXR-alpha (Homo sapiens); assay: Selectivity interaction (Reporter gene assay) EUB0001157a RXRA; set-up: recommended concentration 10 uM; conditions: reference bexarotene 1 uM, Selectivity number of off-targets 0.0, Selectivity number of targets 1.0, Source Knowledge inhouse
[15] = molecular target: Nuclear receptor subfamily 2 group E member 1 (Homo sapiens) (UniProt Q9Y466)
[16] = molecular target: Steroidogenic factor 1 (Homo sapiens) (UniProt Q13285); assay: Selectivity interaction (Reporter gene assay) EUB0001161a NR5A1; set-up: recommended concentration 10 uM
[17] = molecular target: T2, Hepatocyte nuclear factor 4-alpha (Homo sapiens)
[18] = molecular target: Nuclear receptor subfamily 4immunitygroup A member 1 (Homo sapiens) (UniProt P22736)
[19] = molecular target: T1, Nuclear receptor subfamily 2 group C member 1 (Homo sapiens); conditions: screened at recom. conc., Selectivity number of off-targets 1.0, Selectivity number of targets 5.0, Source Knowledge inhouse
[20] = molecular target: Nuclear receptor ROR-alpha (Homo sapiens) (UniProt P35398); conditions: screened at recom. conc., Selectivity number of off-targets 1.0, Selectivity number of targets 19.0, Source Knowledge inhouse
Sequence of Nuclear receptor ROR-alpha (Homo sapiens) (P35398 whole entry): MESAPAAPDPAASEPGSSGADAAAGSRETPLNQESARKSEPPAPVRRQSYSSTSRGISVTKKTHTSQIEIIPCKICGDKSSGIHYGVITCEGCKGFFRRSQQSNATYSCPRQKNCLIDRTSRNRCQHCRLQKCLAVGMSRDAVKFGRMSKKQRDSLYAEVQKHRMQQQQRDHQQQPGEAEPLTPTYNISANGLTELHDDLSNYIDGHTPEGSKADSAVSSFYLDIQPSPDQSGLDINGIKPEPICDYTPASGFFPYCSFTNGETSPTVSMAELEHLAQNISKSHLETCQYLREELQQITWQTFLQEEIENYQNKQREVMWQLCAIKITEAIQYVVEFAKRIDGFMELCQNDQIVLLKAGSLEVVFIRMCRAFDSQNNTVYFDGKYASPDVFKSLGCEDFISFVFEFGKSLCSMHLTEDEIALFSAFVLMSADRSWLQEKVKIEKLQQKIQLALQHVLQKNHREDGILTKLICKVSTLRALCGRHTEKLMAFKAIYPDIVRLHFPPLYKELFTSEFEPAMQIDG

[21] = molecular target: T3, Alpha trans-inducing protein (Human alphaherpesvirus 1); assay: Selectivity interaction (Reporter gene assay) EUB0001161a UL48; set-up: recommended concentration 10 uM
[22] = molecular target: T4, Retinoic acid receptor RXR-alpha (Homo sapiens); assay: Selectivity interaction (Reporter gene assay) EUB0001168a RXRA; set-up: recommended concentration 1 uM; conditions: reference bexarotene 1 uM, Selectivity number of off-targets 0.0, Selectivity number of targets 1.0, Source Knowledge inhouse
[23] = molecular target: Nuclear receptor subfamily 2 group E member 1 (Homo sapiens) (UniProt Q9Y466); assay: Selectivity interaction (Reporter gene assay) EUB0001168a NR2E1; set-up: recommended concentration 1 uM
[24] = molecular target: T1, Nuclear receptor subfamily 2 group C member 1 (Homo sapiens); assay: Selectivity interaction (Reporter gene assay) EUB0001168a NR2C1; set-up: recommended concentration 1 uM
[25] = molecular target: T3, Alpha trans-inducing protein (Human alphaherpesvirus 1); assay: Selectivity interaction (Reporter gene assay) EUB0001168a UL48; set-up: recommended concentration 1 uM
[26] = molecular target: Nuclear receptor subfamily 4immunitygroup A member 1 (Homo sapiens) (UniProt P22736); assay: Selectivity interaction (Reporter gene assay) EUB0001168a NR4A1; set-up: recommended concentration 1 uM
[27] = molecular target: Steroidogenic factor 1 (Homo sapiens) (UniProt Q13285); assay: Selectivity interaction (Reporter gene assay) EUB0001168a NR5A1; set-up: recommended concentration 1 uM
[28] = molecular target: T2, Hepatocyte nuclear factor 4-alpha (Homo sapiens); assay: Selectivity interaction (Reporter gene assay) EUB0001168a HNF4A; set-up: recommended concentration 1 uM
[29] = molecular target: T5, Oxysterols receptor LXR-beta (Homo sapiens) (UniProt P55055); assay: Selectivity interaction (Reporter gene assay) EUB0001168a NR1H2; set-up: recommended concentration 1 uM; conditions: screened at recom. conc., Selectivity number of off-targets 1.0, Selectivity number of targets 19.0, Source Knowledge inhouse
T5 sequence (whole entry): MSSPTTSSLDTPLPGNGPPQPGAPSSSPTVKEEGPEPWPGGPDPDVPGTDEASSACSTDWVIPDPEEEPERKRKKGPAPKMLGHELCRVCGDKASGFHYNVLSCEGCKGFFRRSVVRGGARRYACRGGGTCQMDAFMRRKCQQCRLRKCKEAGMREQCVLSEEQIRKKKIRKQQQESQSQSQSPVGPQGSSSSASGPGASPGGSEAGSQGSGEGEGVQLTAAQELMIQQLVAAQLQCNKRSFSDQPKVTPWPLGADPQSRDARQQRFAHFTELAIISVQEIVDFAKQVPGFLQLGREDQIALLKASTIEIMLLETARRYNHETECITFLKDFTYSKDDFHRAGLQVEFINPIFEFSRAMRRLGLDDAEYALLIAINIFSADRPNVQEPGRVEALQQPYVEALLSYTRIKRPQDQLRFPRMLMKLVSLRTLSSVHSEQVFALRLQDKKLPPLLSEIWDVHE

[30] = molecular target: Steroidogenic factor 1 (Homo sapiens) (UniProt Q13285); assay: Selectivity interaction (Reporter gene assay) EUB0001160a NR5A1; set-up: recommended concentration 1 uM
[31] = molecular target: Nuclear receptor subfamily 2 group E member 1 (Homo sapiens) (UniProt Q9Y466); assay: Selectivity interaction (Reporter gene assay) EUB0001160a NR2E1; set-up: recommended concentration 1 uM
[32] = molecular target: T1, Nuclear receptor subfamily 2 group C member 1 (Homo sapiens); assay: Selectivity interaction (Reporter gene assay) EUB0001160a NR2C1; set-up: recommended concentration 1 uM
[33] = molecular target: Nuclear receptor subfamily 4immunitygroup A member 1 (Homo sapiens) (UniProt P22736); assay: Selectivity interaction (Reporter gene assay) EUB0001160a NR4A1; set-up: recommended concentration 1 uM
[34] = molecular target: T3, Alpha trans-inducing protein (Human alphaherpesvirus 1); assay: Selectivity interaction (Reporter gene assay) EUB0001160a UL48; set-up: recommended concentration 1 uM
[35] = molecular target: T4, Retinoic acid receptor RXR-alpha (Homo sapiens); assay: Selectivity interaction (Reporter gene assay) EUB0001160a RXRA; set-up: recommended concentration 1 uM
[36] = molecular target: T2, Hepatocyte nuclear factor 4-alpha (Homo sapiens); assay: Selectivity interaction (Reporter gene assay) EUB0001160a HNF4A; set-up: recommended concentration 1 uM

`CC(=O)Nc1nc(C)c(S(=O)(=O)Nc2ccc(C(O)(C(F)(F)F)C(F)(F)F)cc2)s1` showed a Remaining activity [1] of 0.684, a Remaining activity [2] of 0.71 and a P-value [3] of 3.31e-05. It also gave a Remaining activity [4] of 0.814, a Remaining activity [5] of 0.58 and a Remaining activity [6] of 0.661. For the same compound, the Relative activation [7] was 0.191%.

`O=S(=O)(Nc1ccc(C(O)(C(F)(F)F)C(F)(F)F)cc1)c1cccs1` was tested, and the Remaining activity [8] was 0.943, the Remaining activity [9] was 0.818 and the Remaining activity [10] was 0.822. The P-value [11] was 0.00195, the Remaining activity [12] was 0.846 and the Remaining activity [13] was 0.634. For the same compound, the Relative activation [14] was 0.211%.

In the case of `COc1cc(O)c(C(CC(=O)N2C[C@H](C)C[C@H](C)C2)c2ccc3c(c2)OCO3)c(OC)c1` (stereo partly specified), the Remaining activity [15] is reported as 0.509, the Remaining activity [16] is reported as 0.942 and the Remaining activity [17] is reported as 0.972. It also gave a Remaining activity [18] of 0.899, a Remaining activity [19] of 0.425 and a Remaining activity [20] of 0.851. It also gave a P-value [21] of 0.000227.

`O=C(O)c1ccnc(N2CC(O)(c3ccc(OCc4c(-c5c(Cl)cccc5Cl)noc4C4CC4)cc3Cl)C2)c1` was tested, and the Relative activation [22] was 0.698%, the Fold activation [23] was 1.12 and the Fold activation [24] was 1.18. For the same compound, the P-value [25] was 0.0011, the Fold activation [26] was 1.01 and the Fold activation [27] was 1.07. It also gave a Fold activation [28] of 1.13 and a Fold activation [29] of 5.01.

In the case of `OC(c1ccc(-c2ccc(CN3CCN(Cc4ccncc4)CC3)cc2)c(F)c1)(C(F)(F)F)C(F)(F)F`, the Remaining activity [30] is reported as 0.561, the Fold activation [31] is reported as 1.21 and the Fold activation [32] is reported as 1.26. For the same compound, the Remaining activity [33] was 0.922, the P-value [34] was 0.00194 and the Relative activation [35] was 1.19%. For the same compound, the Remaining activity [36] was 0.878.
